From patent US5843940A, “Benzothiophene compounds, compositions, and method” (Eli Lilly and Company, priority 1997, dated 1998)
Where a name gives a salt, the structure may show the parent alone.

How the values were obtained:
[1] = tested on: Uterine Eosinophil Peroxidase; test: Uterine Eosinophil Peroxidase (EPO) Assay; format: in vivo, female Sprague Dawley rats; conditions: for Uterine Eosinophil (Vmax), Eosinophil peroxidase Vmax: daily for 4 days, 5 to 6 rats, * p < .05
Excerpt: (§1) Seventy-five day old female Sprague Dawley rats (weight range of 200 to 225 g) were obtained from Charles River Laboratories (Portage, Mich.). The animals were either bilaterally ovariectomized (OVX) or exposed to a Sham surgical procedure at Charles River Laboratories, and then shipped after one week. Upon arrival, they were housed in metal hanging cages in groups of 3 or 4 per cage and had ad libitum access to food (calcium content approximately 0.5%) and water for one week. Room temperature was maintained at 22.2°±1.7° C. with a minimum relative humidity of 40%. The photoperiod in the room was 12 hours light and 12 hours dark.
(§2) Dosing Regimen Tissue Collection. After a one week acclimation period (therefore, two weeks post-OVX) daily dosing with test compound was initiated. 17α-ethynyl estradiol or the test compound were given orally, unless otherwise stated, as a suspension in 1% carboxymethylcellulose or dissolved in 20% cyclodextrin. Animals were dosed daily for 4 days. Following the dosing regimen, animals were weighed and anesthetized with a ketamine:xylazine (2:1, V:V) mixture and a blood sample was collected by cardiac puncture. The animals were then sacrificed by asphyxiation with CO2, the uterus was removed through a midline incision, and a wet uterine weight was determined.
Uterine Eosinophil Peroxidase (EPO) Assay. Uteri were kept at 4° C. until time of enzymatic analysis. The uteri were then homogenized in 50 volumes of 50 mM Tris buffer (pH-8.0) containing 0.005% Triton X-100. Upon addition of 0.01% hydrogen peroxide and 10 mM O-phenylenediamine (final concentrations) in Tris buffer, increase in absorbance was monitored for one minute at 450 nm. The presence of eosonophils in the uterus is an indication of estrogenic activity of a compound. The maximal velocity of a 15 second interval was determined over the initial, linear portion of the reaction curve.
(§3) The data presented in Table 1 below reflects the response of 5 to 6 rats per treatment.

Serum cholesterol = Serum cholesterol analysis in ovariectomized rats; format: in vivo, female Sprague Dawley rats; conditions: for Serum Cholest. % Dec. (decrease versus ovariectomized controls): daily for 4 days, 5 to 6 rats, * p < .05
Excerpt: as §1, §2
Cholesterol Analysis. Blood samples were allowed to clot at room temperature for 2 hours, and serum was obtained following centrifugation for 10 minutes at 3000 rpm. Serum cholesterol was determined using a Boehringer Mannheim Diagnostics high performance cholesterol assay. Briefly the cholesterol was oxidized to cholest-4-en-3-one and hydrogen peroxide. The hydrogen peroxide was then reacted with phenol and 4-aminophenazone in the presence of peroxidase to produce a p-quinone imine dye, which was read spectrophotemetrically at 500 nm. Cholesterol concentration was then calculated against a standard curve.
as §3

[2] = tested on: uterus of ovariectomized rats; test: Uterine weight in ovariectomized rats; format: in vivo, female Sprague Dawley rats; conditions: for Uterine Weight % Inc (increase versus the ovariectomized controls): daily for 4 days, 5 to 6 rats, * p < .05
Excerpt: as §1, §2, §3

[3] = tested on: femur density of ovariectomized rats; test: Osteoporosis test, bone density in ovariectomized rats; format: in vivo; conditions: orally administered, 35 days, in 20% hydroxypropyl β-cyclodextrin
Protocol: Following the General Preparation Procedure, infra, the rats are treated daily for 35 days (6 rats per treatment group) and sacrificed by carbon dioxide asphyxiation on the 36th day. The 35 day time period is sufficient to allow maximal reduction in bone density, measured as described herein. At the time of sacrifice, the uteri are removed, dissected free of extraneous tissue, and the fluid contents are expelled before determination of wet weight in order to confirm estrogen deficiency associated with complete ovariectomy. […] The uteri are then placed in 10% neutral buffered formalin to allow for subsequent histological analysis. The right femurs are excised and digitilized x-rays generated and analyzed by an image analysis program (NIH image) at the distal metaphysis. The proximal aspect of the tibiae from these animals are also scanned by quantitative computed tomography. In accordance with the above procedures, compounds of the instant invention and ethynyl estradiol (EE2) in 20% hydroxypropyl β-cyclodextrin are orally administered to test animals. Distal femur metaphysis and proximal tibiae data are compared to intact and ovariectomized test animals. Results are reported as percent protection relative to ovariectomy.

[4] = tested on: MCF-7 breast adenocarcinoma cells; test: MCF-7 Proliferation Assay (estrogen dependent breast cancer); format: cell-based; conditions: Homo sapiens, MCF7, versus control (DMSO), tritiated thymidine
Protocol: MCF-7 breast adenocarcinoma cells (ATCC HTB 22) are maintained in MEM (minimal essential medium, phenol-red free, Sigma St.Louis Mo.) supplimented with 10% fetal bovine serum (FBS) (v/v), L-glutamine (2 mM), sodium pyruvate (1 mM), HEPES (10 mM), non-essential amino acids and bovine insulin (1 ug/mL). Ten days prior to the assay, the MCF-7 cells are switched to maintenance medium supplemented with 10% dextrancoated charcoal stripped fetal bovine serum (DCC-FBS) assay medium in place of the 10% FBS to deplete internal stores of estrogen. MCF-7 cells are removed from the maintenance flasks using a cell dissociating medium (Ca/Mg free HBSS (phenol-red free) supplemented with 10 mM HEPES and 2 mM EDTA. Cells are washed twice with the assay medium and adjusted to 80,000 cells/mL. Approximately […] (8,000 cells) are added to a flat-bottomed microculture well (Costar 3596) and incubated at […] in a 5% CO2 humidified incubator for 48 hours to allow cell adherence and equilibrium after transfer. Serial dilutions of the compounds of formula I or DMSO as a diluent control are prepared in assay medium and […] to triplicate microcultures followed by […] for a final volume of […]. After an additional 48 hours of incubation, the microcultures are pulsed with tritiated thymidine ([…]) for 4 hours. Culture are terminated by freezing at -70° C. for 24 hours followed by thawing and harvesting of microcultures using a Skatron Semiautomatic Cell Harvester. Samples are counted by liquid scintillation. Fifty percent inhibitory concentration of the test drugs (IC50) are determined versus the control (DMSO).

| IC50 [4] [nM] | Compound | Uterine Eosinophil (Vmax), Eosinophil peroxidase Vmax ([1]; 0.1 mg/kg PO) | Uterine Eosinophil (Vmax), Eosinophil peroxidase Vmax ([1]; 1.0 mg/kg PO) | Uterine Eosinophil (Vmax), Eosinophil peroxidase Vmax ([1]; 10.0 mg/kg PO) | Serum Cholest. % Dec. (decrease versus ovariectomized controls) (Serum cholesterol; 0.1 mg/kg PO) [%] | Serum Cholest. % Dec. (decrease versus ovariectomized controls) (Serum cholesterol; 1.0 mg/kg PO) [%] | Serum Cholest. % Dec. (decrease versus ovariectomized controls) (Serum cholesterol; 10.0 mg/kg PO) [%] | Uterine Weight % Inc (increase versus the ovariectomized controls) ([2]; 0.1 mg/kg PO) [%] | Uterine Weight % Inc (increase versus the ovariectomized controls) ([2]; 1.0 mg/kg PO) [%] | Uterine Weight % Inc (increase versus the ovariectomized controls) ([2]; 10.0 mg/kg PO) [%] | loss of femur density after ovariectomy [3] | eosinophil infiltration into the uterus (in words) ([1]; stromal layer of ovariectomized rats) | serum cholesterol (in words) (Serum cholesterol; EE2 orally at 0.1 mg/kg/day) | uterine weight (in words) ([2]; EE2 orally at 0.1 mg/kg/day, versus ovariectomized test animals) |
| --- | --- | --- | --- | --- | --- | --- | --- | --- | --- | --- | --- | --- | --- | --- |
| – | Oc1ccc(-c2sc3cc(O)ccc3c2-c2ccc(OCCN3CCCCC3)cc2)cc1 [Compound A, reference compound] | 21.0 | 49.9 | 55.9 | 45.4 | 68.8 | 65.3 | 24.6 | 64.8 | 41.7 | – | – | – | – |
| – | C#C[C@]1(O)CC[C@H]2[C@@H]3CCc4cc(O)ccc4[C@H]3CC[C@@]21C [EE2, 17α-ethynyl estradiol, reference compound] | 234.2 | – | – | 89.3 | – | – | 118.6 | – | – | prevents this loss | substantial, expected increase in eosinophil infiltration | caused a decrease in serum cholesterol | substantially greater than the uterine weight of ovariectomized test animals |
| – | COc1ccc(-c2sc3cc(OC)ccc3c2-c2cccc(OCCN3CCCCC3)c2)cc1.Cl [Example 1, 2-(4-Methoxyphenyl)-3-[3-[2-(1-piperidinyl)ethoxy]phenyl]-6-methoxybenzo[b]thiophene hydrochloride] | 7.5 | 22.2 | 103.5 | 25.8 | 56.1 | 71.1 | 24 | 37.2 | 68.2 | – | – | – | – |
| – | COc1ccc(-c2sc3cc(OC)ccc3c2-c2cccc(OCCCN3CCCCC3)c2)cc1.Cl [Example 2, 2-(4-Methoxyphenyl)-3-[3-[3-(1-piperidinyl)propoxy]phenyl]-6-methoxybenzo[b]thiophene hydrochloride] | 24.0 | 32.4 | 32.1 | 59.1 | 76.5 | 69.4 | 20.2 | 35.7 | 39.1 | – | – | – | – |
| – | COc1ccc(-c2sc3cc(OC)ccc3c2-c2cccc(OCCCCN3CCCCC3)c2)cc1.Cl [Example 3, 2-(4-Methoxyphenyl)-3-[3-[4-(1-piperidinyl)butoxy]phenyl]-6-methoxybenzo[b]thiophene hydrochloride] | 4.8 | 43.5 | -91.2 | 35.5 | 64.4 | 78.0 | 23.9 | 62.1 | 65.0 | – | – | – | – |
| 8 | Oc1ccc(-c2sc3cc(O)ccc3c2-c2cccc(OCCN3CCCCC3)c2)cc1 [Example 4, 2-(4--Hydroxyphenyl)-3-[3-[2-(1-piperidinyl)ethoxy]phenyl]-6-hydroxybenzo[b]thiophene hydrochloride] | 4.8 | 4.8 | 103.8 | 33.3 | 57.2 | 81.0 | 9.1 | 5.6 | 78.7 | – | – | – | – |
| 0.2 | Oc1ccc(-c2sc3cc(O)ccc3c2-c2cccc(OCCCN3CCCCC3)c2)cc1 [Example 5] | – | – | – | – | – | – | – | – | – | – | – | – | – |

| Compound | IC50 [4] [nM] | Uterine Eosinophil (Vmax), Eosinophil peroxidase Vmax ([1]; 0.1 mg/kg PO) | Uterine Eosinophil (Vmax), Eosinophil peroxidase Vmax ([1]; 1.0 mg/kg PO) | Uterine Eosinophil (Vmax), Eosinophil peroxidase Vmax ([1]; 10.0 mg/kg PO) | Serum Cholest. % Dec. (decrease versus ovariectomized controls) (Serum cholesterol; 0.1 mg/kg PO) [%] | Serum Cholest. % Dec. (decrease versus ovariectomized controls) (Serum cholesterol; 1.0 mg/kg PO) [%] | Serum Cholest. % Dec. (decrease versus ovariectomized controls) (Serum cholesterol; 10.0 mg/kg PO) [%] | Uterine Weight % Inc (increase versus the ovariectomized controls) ([2]; 0.1 mg/kg PO) [%] | Uterine Weight % Inc (increase versus the ovariectomized controls) ([2]; 1.0 mg/kg PO) [%] | Uterine Weight % Inc (increase versus the ovariectomized controls) ([2]; 10.0 mg/kg PO) [%] | loss of femur density after ovariectomy [3] | eosinophil infiltration into the uterus (in words) ([1]; stromal layer of ovariectomized rats) | serum cholesterol (in words) (Serum cholesterol; EE2 orally at 0.1 mg/kg/day) | uterine weight (in words) ([2]; EE2 orally at 0.1 mg/kg/day, versus ovariectomized test animals) |
| --- | --- | --- | --- | --- | --- | --- | --- | --- | --- | --- | --- | --- | --- | --- |
| Oc1ccc(-c2sc3cc(O)ccc3c2-c2cccc(OCCCCN3CCCCC3)c2)cc1 [Example 6, 2-(4--Hydroxyphenyl)-3-[3-(1-piperidinyl)butoxy]phenyl]-6-hydroxybenzo[b]thiophene hydrochloride] | 2 | – | – | – | – | – | – | – | – | – | – | – | – | – |
